Reference: US20100048699A1, “CHEMICAL COMPOUNDS” (SYNGENTA CROP PROTECTION, INC., priority 2006, published 2010)

Legend:
Myzus persicae [1] = experiment: Myzus persicae (green peach aphid) sunflower leaf disc spray test; conditions: foliar, 144 h, read-out: control of Myzus persicae
Tetranychus urticae = Tetranychus urticae (two-spotted spider mite) bean leaf disc spray test; conditions: foliar, 192 h, read-out: control of Tetranychus urticae
Myzus persicae [2] = experiment: Myzus persicae (green peach aphid) pea seedling root uptake test; conditions: 144 h, read-out: control of Myzus persicae

Structure (SMILES)	pest or weed control at 200 ppm (Myzus persicae [1]) [%]	pest or weed control at 200 ppm (Tetranychus urticae) [%]	pest or weed control at 24 ppm (Myzus persicae [2]) [%]
COC(=O)OCCNC(=S)NC1CCc2c(F)cccc21 (stereo not shown) [Compound 3.038, carbonic acid 2-[3(4-fluoro-indan-1-yl)-thioureido]-ethyl methylester]	≥ 80	≥ 80	≥ 80
O=C(OCCNC(=S)NC1CCc2c(F)cccc21)N1CCCCC1 (stereo not shown) [Compound 11.001]	≥ 80	≥ 80	
O=C(OCCNC(=S)NC1CCc2c(F)cccc21)c1ccc(F)cc1 (stereo not shown) [Compound 11.003]	≥ 80	≥ 80	≥ 80
N#Cc1ccc(C(=O)OCCNC(=S)NC2CCc3c(F)cccc32)cc1 (stereo not shown) [Compound 11.005]	≥ 80	≥ 80	≥ 80
O=C(/C=C/c1ccccc1)OCCNC(=S)NC1CCc2c(F)cccc21 (stereo not shown) [Compound 11.006]	≥ 80	≥ 80	≥ 80
COc1ccccc1C(=O)OCCNC(=S)NC1CCc2c(F)cccc21 (stereo not shown) [Compound 11.007]	≥ 80	≥ 80	≥ 80
COc1ccc(C(=O)OCCNC(=S)NC2CCc3c(F)cccc32)cc1 (stereo not shown) [Compound 11.009]	≥ 80	≥ 80	≥ 80
O=C(OCCNC(=S)NC1CCc2c(F)cccc21)c1ccc(Cl)cc1 (stereo not shown) [Compound 11.010]	≥ 80	≥ 80	≥ 80
O=C(OCCNC(=S)NC1CCc2c(F)cccc21)c1cccc(Cl)c1 (stereo not shown) [Compound 11.011]	≥ 80	≥ 80	≥ 80
O=C(OCCNC(=S)NC1CCc2c(F)cccc21)c1ccccc1Cl (stereo not shown) [Compound 11.012]	≥ 80	≥ 80	≥ 80
O=C(OCCNC(=S)NC1CCc2c(F)cccc21)c1cc(F)ccc1F (stereo not shown) [Compound 11.013]	≥ 80	≥ 80	≥ 80
O=C(OCCNC(=S)NC1CCc2c(F)cccc21)c1ccc(F)cc1F (stereo not shown) [Compound 11.014]	≥ 80	≥ 80	≥ 80
CN(C)c1ccc(C(=O)OCCNC(=S)NC2CCc3c(F)cccc32)cc1 (stereo not shown) [Compound 11.015]	≥ 80		
COc1ccc(CC(=O)OCCNC(=S)NC2CCc3c(F)cccc32)cc1 (stereo not shown) [Compound 11.016]	≥ 80	≥ 80	≥ 80
O=C(Cc1ccc(Cl)cc1)OCCNC(=S)NC1CCc2c(F)cccc21 (stereo not shown) [Compound 11.018]	≥ 80	≥ 80	≥ 80
O=C(OCCNC(=S)NC1CCc2c(F)cccc21)c1ccccc1C(F)(F)F (stereo not shown) [Compound 11.023]	≥ 80	≥ 80	≥ 80
O=C(OCCNC(=S)NC1CCc2c(F)cccc21)c1ccc(C(F)(F)F)cc1 (stereo not shown) [Compound 11.024]	≥ 80	≥ 80	≥ 80
O=C(/C=C/c1ccc([N+](=O)[O-])cc1)OCCNC(=S)NC1CCc2c(F)cccc21 (stereo not shown) [Compound 11.027]	≥ 80		
COc1ccc(CC(=O)OCCNC(=S)NC2CCc3c(F)cccc32)cc1OC (stereo not shown) [Compound 11.028]	≥ 80	≥ 80	≥ 80
O=C(OCCNC(=S)NC1CCc2c(F)cccc21)OCc1ccc([N+](=O)[O-])cc1 (stereo not shown) [Compound 11.030]	≥ 80	≥ 80	≥ 80
O=C(OCCNC(=S)NC1CCc2c(F)cccc21)c1cccc2c1OC(F)(F)O2 (stereo not shown) [Compound 11.031]	≥ 80		≥ 80
O=C(OCCNC(=S)NC1CCc2c(F)cccc21)c1ccc(F)cc1C(F)(F)F (stereo not shown) [Compound 11.034]	≥ 80		≥ 80
O=C(OCCNC(=S)NC1CCc2c(F)cccc21)c1ccc(F)c(C(F)(F)F)c1 (stereo not shown) [Compound 11.035]	≥ 80	≥ 80	≥ 80
O=C(OCCNC(=S)NC1CCc2c(F)cccc21)N(c1ccccc1)c1ccccc1 (stereo not shown) [Compound 11.039]	≥ 80		
CCCC(C(=O)OCCNC(=S)NC1CCc2c(F)cccc21)c1ccc(Cl)cc1Cl (stereo not shown) [Compound 11.040]	≥ 80	≥ 80	≥ 80

Structure (SMILES)	pest or weed control at 200 ppm (Myzus persicae [1]) [%]	pest or weed control at 200 ppm (Tetranychus urticae) [%]	pest or weed control at 24 ppm (Myzus persicae [2]) [%]
O=C(OCc1ccccc1C(=O)OCCNC(=S)NC1CCc2c(F)cccc21)c1ccccc1 (stereo not shown) [Compound 11.041]	≥ 80	≥ 80	
Cc1ccc(-n2c(=O)cc(C(F)(F)F)n(C)c2=O)cc1C(=O)OCCNC(=S)NC1CCc2c(F)cccc21 (stereo not shown) [Compound 11.043]	≥ 80	≥ 80	
Cc1cc(C(=O)OCCNC(=S)NC2CCc3c(F)cccc32)c(C(F)(F)F)o1 (stereo not shown) [Compound 11.044]	≥ 80	≥ 80	≥ 80
Cc1oc(C(C)(C)C)cc1C(=O)OCCNC(=S)NC1CCc2c(F)cccc21 (stereo not shown) [Compound 11.045]	≥ 80		≥ 80
Cc1c(S(=O)(=O)c2ccc(Cl)cc2)csc1C(=O)OCCNC(=S)NC1CCc2c(F)cccc21 (stereo not shown) [Compound 11.046]	≥ 80	≥ 80	
COc1cc(C(=O)OCCNC(=S)NC2CCc3c(F)cccc32)cc(Cl)n1 (stereo not shown) [Compound 11.047]	≥ 80	≥ 80	≥ 80
O=C(/C=C/c1cccc(C(F)(F)F)c1)OCCNC(=S)NC1CCc2c(F)cccc21 (stereo not shown) [Compound 11.048]	≥ 80	≥ 80	≥ 80
O=C(OCCNC(=S)NC1CCc2c(F)cccc21)c1cncc(Br)c1 (stereo not shown) [Compound 11.049]	≥ 80		≥ 80
CCC(Oc1ccccc1)C(=O)OCCNC(=S)NC1CCc2c(F)cccc21 (stereo not shown) [Compound 11.051]	≥ 80	≥ 80	≥ 80
O=C(OCCNC(=S)NC1CCc2c(F)cccc21)c1cc(C(F)(F)F)ccc1F (stereo not shown) [Compound 11.052]	≥ 80	≥ 80	
C/C(=C\c1ccccc1)C(=O)OCCNC(=S)NC1CCc2c(F)cccc21 (stereo not shown) [Compound 11.053]	≥ 80	≥ 80	≥ 80
O=C(OCCNC(=S)NC1CCc2c(F)cccc21)c1ccccc1I (stereo not shown) [Compound 11.054]	≥ 80		≥ 80
O=C(OCCNC(=S)NC1CCc2c(F)cccc21)C1Cc2ccccc2O1 (stereo not shown) [Compound 11.055]	≥ 80	≥ 80	≥ 80
O=C(OCCNC(=S)NC1CCc2c(F)cccc21)c1ccc(Cl)c([N+](=O)[O-])c1 (stereo not shown) [Compound 11.058]	≥ 80	≥ 80	≥ 80
O=C(NCCOC(=O)c1cnn(-c2ccccc2)c1C(F)(F)F)NC1CCc2c(F)cccc21 (stereo not shown) [Compound 11.059]	≥ 80	≥ 80	≥ 80
Cc1ccccc1CC(=O)OCCNC(=S)NC1CCc2c(F)cccc21 (stereo not shown) [Compound 11.060]	≥ 80	≥ 80	≥ 80
O=C(Cc1ccccc1F)OCCNC(=S)NC1CCc2c(F)cccc21 (stereo not shown) [Compound 11.062]	≥ 80	≥ 80	≥ 80
O=C(Cc1ccc(F)cc1)OCCNC(=S)NC1CCc2c(F)cccc21 (stereo not shown) [Compound 11.063]	≥ 80	≥ 80	≥ 80
O=C(OCCNC(=S)NC1CCc2c(F)cccc21)c1ccc(SC(F)(F)C(F)(F)F)cc1 (stereo not shown) [Compound 11.064]	≥ 80	≥ 80	
O=C(Cc1cccc(C(F)(F)F)c1)OCCNC(=S)NC1CCc2c(F)cccc21 (stereo not shown) [Compound 11.065]	≥ 80	≥ 80	≥ 80
Cc1ccsc1C(=O)OCCNC(=S)NC1CCc2c(F)cccc21 (stereo not shown) [Compound 11.067]	≥ 80	≥ 80	
O=C(OCCNC(=S)NC1CCc2c(F)cccc21)c1cc(Cl)sc1Cl (stereo not shown) [Compound 11.068]	≥ 80	≥ 80	
Cc1c(C(=O)OCCNC(=S)NC2CCc3c(F)cccc32)ncn1C(C)(C)C (stereo not shown) [Compound 11.070]	≥ 80	≥ 80	≥ 80
Cc1nn(-c2ccccc2)nc1C(=O)OCCNC(=S)NC1CCc2c(F)cccc21 (stereo not shown) [Compound 11.072]	≥ 80	≥ 80	
